How the values were obtained:
[1] = tested on: mutant trypsinogen mice; experiment: Prevention of pancreatitis in mouse model expressing active trypsin (PACE-trypsinogen); format: in vivo; conditions: pretreated two hours prior to caerulein and seven hours after final caerulein injection, Dabigatran 200 mg/kg×2, Camostat 300 mg/kg×2, Ximelagatran 40 mg/kg×2
Experimental: (§1) The secretagogue overstimulation model of experimental pancreatitis with caerulein, is a commonly used AP model (Zhan et al., Gastrointestinal Liver Physiology, 311:G343-55 (2016)). This model was accomplished by repeated intraperitoneal (ip) injections of caerulein (100 μg/kg/hour) once per hour (Huang et al., Gastroenterology, 144:202-10 (2013)).
A PACE-activated trypsinogen model in which the original enteropeptidase cleavage site (DDDDK) was replaced by a PACE cleavage site (RTKR), using site-specific mutagenesis of the wild type rat trypsinogen cDNA, was produced (Ji et al., J. Biol. Chem., 284:17488-98 (2009)). PACE, paired basic amino acid cleaving enzyme (also called furin), is a mammalian propeptide-processing endoprotease that is present in the trans-Golgi network of virtually all cells. To target expression of PACE-trypsinogen specifically to pancreatic acinar cells, conditional LGL (loxP-GFP-stop-loxP)-PACE-trypsinogen transgenic mice were bred with full-length, acinar specific, elastase promoter-regulated Cre transgenic mice. […]
(§2) Pancreas edema, serum amylase, and histology were evaluated as described elsewhere (Gaiser et al., Gut, 60:1379-88 (2011); Huang et al., Gastroenterology, 144:202-10 (2013); and Daniluk et al., J. Clin. Invest., 122:1519-28 (2012)). […]

[2] = tested on: WT mice; experiment: Prevention of caerulein-induced acute pancreatitis in WT mice; format: in vivo, mouse; conditions: evaluated 24 h after first caerulein dose, Dabigatran 200 mg/kg×2, Camostat 300 mg/kg×2
Experimental: as §1
Camostat mesilate (Santa Cruz), Dabigatran etexilate mesylate (a prodrug for Dabigatran, TRC Canada), and Ximelagatran (a prodrug for Melagatran, Sigma-Aldrich) were dissolved in 10% β-Cyclodextrin (Sigma-Aldrich). […]
Pancreas edema, serum amylase, and histology were evaluated as described elsewhere (Gaiser et al., Gut, 60:1379-88 (2011); Huang et al., Gastroenterology, 144:202-10 (2013); and Daniluk et al., J. Clin. Invest., 122:1519-28 (2012)).
The effect of Dabigatran on experimental pancreatitis in WT mice was evaluated. Dabigatran and Camostat were administrated by oral gavage two hours before the initiation of AP by six hourly injections of caerulein (FIG. 1A). Twenty-four hours after the first dose of caerulein, the severity of pancreatitis was evaluated.

[3] = tested on: PRSS1R122H mice; experiment: Therapeutic administration after AP induction in PRSS1R122H mice, progression to chronic pancreatitis; format: in vivo, mouse; conditions: administered four hours after AP induction by caerulein, treated for additional five days, Dabigatran 200 mg/kg Bid, Camostat 300 mg/kg Bid
Experimental: as §1
A model of human hereditary pancreatitis (HP) was developed by using a bacterial artificial chromosome (BAC, clone RP11-701D14) harboring the full-length human PRSS1 gene containing an intact PRSS1 promoter, all exons and introns, and the 3′ untranslated region for faithful recapitulation of the gene's expression. An R122H point mutation was introduced by two rounds of genetic targeting using Galk-mediated recombineering (PRSS1^R122H) (Warming et al., Nucleic Acids Research, 33:e36 (2005)). This transgene expressed PRSS1^R122H at ˜50% of the endogenous human PRSS1 protein level as detected by Western blot (WB) and real-time RT-PCR. […]
as §2

[4] = tested on: PRSS1R122H mice; experiment: Prevention of caerulein-induced pancreatitis in mouse model of human hereditary pancreatitis (PRSS1R122H); format: in vivo; conditions: Dabigatran 200 mg/kg×2, Camostat 300 mg/kg×2
Experimental: as §1
A model of human hereditary pancreatitis (HP) was developed by using a bacterial artificial chromosome (BAC, clone RP11-701D14) harboring the full-length human PRSS1 gene containing an intact PRSS1 promoter, all exons and introns, and the 3′ untranslated region for faithful recapitulation of the gene's expression. An R122H point mutation was introduced by two rounds of genetic targeting using Galk-mediated recombineering (PRSS1^R122H) (Warming et al., Nucleic Acids Research, 33:e36 (2005)). This transgene expressed PRSS1^R122H at ˜50% of the endogenous human PRSS1 protein level as detected by Western blot (WB) and real-time RT-PCR. Taking into account that the PRSS1^R122H mutation was heterozygous, and that mutated PRSS1 constituted 50% of the total PRSS1 in human HP, this model does expressPRSS1^R122H at a physiologically relevant level. In this mouse model, spontaneous AP and CP were not observed. However, these mice developed more severe AP following the induction of AP with caerulein injection. More importantly, all of the PRSS1^R122H mice, but none of the WT mice, developed CP with an observed histopathology similar to that seen in human HP (Singhi et al., Am. J. Surg. Path., 38:346-53 (2014)). Therefore, this model faithfully recapitulates the histological changes observed during human HP (Singhi et al., Am. J. Surg. Path., 38:346-53 (2014)). […]
as §2

[5] = tested on: human having pancreatitis; experiment: Treating a human identified as having pancreatitis (Example 2); format: in vivo; conditions: 112 mg dabigatran or 150 mg dabigatran etexilate at least twice a day for one to three weeks
Experimental: A human identified as having pancreatitis is administered 112 mg of dabigatran or 150 mg of dabigatran etexilate at least twice a day for one to three weeks.

SMILES	development of severe AP (pancreas edema, serum amylase) [1]	pancreatic edema (pancreas/body weight ratio) ([2]; oral gavage two hours before six hourly caerulein injections (100 μg/kg×6))	serum amylase levels ([2]; oral gavage two hours before six hourly caerulein injections)	progression of AP to CP (pancreas/body weight ratio, histology) [3]	pancreatic edema (pancreas/body weight ratio) ([4]; pretreatment before caerulein (100 μg/kg×6))	pancreatic histology ([4]; pretreatment before caerulein)	serum amylase levels ([4]; pretreatment before caerulein)	severity of the pancreatitis [5]
CN(C)C(=O)COC(=O)Cc1ccc(OC(=O)c2ccc(NC(=N)N)cc2)cc1 [Camostat, Camostat mesilate]	no ability to prevent the development of severe AP	moderately reduce	no significant effect	no positive effects on preventing the development of CP	only slightly improved	only slightly improved	only slightly improved	
CCCCCCOC(=O)N=C(N)c1ccc(NCc2nc3cc(C(=O)N(CCC(=O)OCC)c4ccccn4)ccc3n2C)cc1 [dabigatran etexilate]								reduction in the severity of the pancreatitis

Source: patent publication US20180369219A1, “USING DABIGATRAN TO TREAT PANCREATITIS” (Mayo Foundation for Medical Education and Research, priority 2017, published 2018)
